Test systems include SNB-75 CNS; A498 renal; RXF 393 renal; COLO 205 colon; SN12C renal; OVCAR-5 ovarian; SNB-19 CNS; MALME-3M melanoma; SF-268 CNS; IGROV1 ovarian; A549 NSCLC; HS 578T breast; HCT-15 colon; SK-MEL-28 melanoma; MCF7 breast; OVCAR-8 ovarian; MDA-MB-231 breast; UACC-257 melanoma; 786-0 renal; HOP-92 NSCLC.
What all share (assay): growth of human tumour cells (NCI), 48 h

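A five-concentration, 48-hour dose response in 96-well plates underlies each endpoint, interpolated linearly between surrounding concentrations. Definition used: TGI = concentration required for complete inhibition of growth.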 Some results are limits rather than exact numbers.

For the compound `Cn1c(=O)cc(NCCc2ccccc2)[nH]c1=O`, the TGI in the experiment on SNB-75 CNS, in the experiment with A498 renal, in the experiment with RXF 393 renal, in the experiment on COLO 205 colon, in the experiment on SN12C renal and in the experiment on OVCAR-5 ovarian was more than 100 µM each time. For the same compound, the TGI is more than 100 µM in the experiment with SNB-19 CNS; more than 100 µM in the experiment on MALME-3M melanoma; more than 100 µM in the experiment with SF-268 CNS; more than 100 µM in the experiment with IGROV1 ovarian; more than 100 µM in the experiment with A549 NSCLC; 50.7 µM in the experiment with HS 578T breast. For the same compound, the TGI in the experiment with HCT-15 colon is more than 100 µM; with SK-MEL-28 melanoma it was more than 100 µM; in the experiment with MCF7 breast, more than 100 µM; in the experiment with OVCAR-8 ovarian, more than 100 µM; in the experiment on MDA-MB-231 breast, 50 µM; in the experiment on UACC-257 melanoma, more than 100 µM. Moreover, the TGI with 786-0 renal and in the experiment with HOP-92 NSCLC was more than 100 µM throughout.

For the origin of these results see PubChem BioAssay (NCI).
